2 molecules from US4423215A, “Method of preparing sodium salts of imidazoledicarboxylic acid substituted cephalosporin derivatives” (Ajinomoto Company, Inc., priority 1981, dated 1983) can be followed below.

This series is described as follows: Acute toxicity, LD50 (mouse, i.v.). Type of series: in vivo.

The structures appear in SMILES notation. Structures can show the parent of a compound that is named as a salt. Where two headings read alike, the source gives them in different places.

Regarding `O=C(O)C1=C(C[n+]2ccc(CCS(=O)(=O)[O-])cc2)CS[C@@H]2[C@H](NC(=O)[C@H](NC(=O)c3[nH]cnc3C(=O)O)c3ccccc3)C(=O)N12` [dipotassium salt, 7B-[D--(-)-α-(4-carboxyimidazole-5-carboxyamide)-phenylacetamide]-3-(4-β-sulfoethyl-pyridinium)-methyl-3-cepham-4-carboxylic acid], the 50% lethal dose (LD50) (as a rule, the dose expected to kill half of the subjects tested) is 500 to 1000 mg/kg.

Turning to `O=C(O)C1=C(C[n+]2ccc(CCS(=O)(=O)[O-])cc2)CS[C@@H]2[C@H](NC(=O)[C@H](NC(=O)c3[nH]cnc3C(=O)O)c3ccccc3)C(=O)N12` [disodium salt, 7B-[D--(-)-α-(4-carboxyimidazole-5-carboxyamide)-phenylacetamide]-3-(4-β-sulfoethyl-pyridinium)-methyl-3-cepham-4-carboxylic acid, disodium salt], the 50% lethal dose (LD50) entry (disodium salt) is given as “more than 3 g/kg”.
